Test results reported in PMC10096376, “Insecticidal and Synergistic Potential of Three Monoterpenoids against the Yellow Fever Mosquito, Aedes aegypti (Diptera: Culicidae), and the House Fly, Musca domestica (Diptera: Muscidae)” (Molecules, 2023).
Like-named read-outs stand apart in the source and are kept apart here.

Key:
Aedes aegypti [1] = experiment: Co-toxicity assay with permethrin (topical); details: for 1-h knockdown Co-Toxicity Factor / 24-h mortality Co-Toxicity Factor: >+20 potentiation, <−20 antagonism, −20 to +20 additive
Method: (§1) For Ae. aegypti, synergism assays were performed similar to the topical applications described previously, with the following modifications: 2 doses (2 µg/mosquito and 10 µg/mosquito) of each monoterpenoid were applied as synergists, similar to previous studies exploring the synergistic potential of natural products in combination with an intermediate dose-level of insecticide alone.
(§2) Mosquitoes were transferred to deli cups and kept at a controlled temperature and humidity (the same conditions as described for the topical application of insecticides and monoterpenoids alone). Again, a minimum of 3 separate rearing cohorts were used among replicates of each dose combination.
(§3) Dose responses were modeled via probit analysis, and their resulting estimates were obtained. […] A control correction option (OPTC command) was used to account for responses to the vehicle control treatments. Co-toxicity values were calculated by the method of [29]. A co-toxicity factor of >+20 signifies potentiation, <−20 antagonism, and −20 to +20 additive.

acetylcholinesterase = acetylcholinesterase (Musca domestica, UniProt Q7YWJ9); experiment: In vitro inhibition of acetylcholinesterase (Ellman), head homogenate; type: biochemical; details: at 1 mM, M. domestica preparation; read-out: inhibition of AChE
acetylcholinesterase, sequence (Q7YWJ9 81-660): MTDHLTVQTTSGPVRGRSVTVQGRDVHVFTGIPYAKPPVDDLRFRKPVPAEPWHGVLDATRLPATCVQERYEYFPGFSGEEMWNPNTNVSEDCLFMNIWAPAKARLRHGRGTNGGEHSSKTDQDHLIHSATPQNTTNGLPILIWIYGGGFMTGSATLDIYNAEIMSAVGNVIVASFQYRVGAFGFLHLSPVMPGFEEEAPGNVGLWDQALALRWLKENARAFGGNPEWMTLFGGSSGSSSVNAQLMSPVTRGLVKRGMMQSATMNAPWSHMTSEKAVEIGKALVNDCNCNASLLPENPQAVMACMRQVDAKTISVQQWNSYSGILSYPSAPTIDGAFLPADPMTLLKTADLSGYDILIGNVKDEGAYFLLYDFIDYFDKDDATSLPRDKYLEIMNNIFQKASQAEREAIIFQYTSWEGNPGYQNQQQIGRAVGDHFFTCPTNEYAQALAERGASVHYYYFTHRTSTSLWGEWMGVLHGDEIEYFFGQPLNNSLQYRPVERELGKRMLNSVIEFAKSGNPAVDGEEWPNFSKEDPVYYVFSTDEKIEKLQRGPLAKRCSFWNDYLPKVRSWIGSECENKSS
Method: Acetylcholinesterase inhibition was conducted on homogenates of whole-body Ae. aegypti and M. domestica heads using Ellman’s method. For Ae. aegypti, 10 whole female adults were placed in 2 mL microcentrifuge screw cap tubes with 3–5.2 mm zircon/silica beads and homogenized in 500 μL of sodium phosphate buffer (100 mM, pH 7.8) using a Precellys Evolution bead beater (Bertin Corp., Rockville, MD, USA) set to two 15-s pulses of 5600 rpm. Afterward, 500 μL of Triton X-100 buffer (100 mM sodium phosphate, pH 7.8, 0.6% Triton X-100) was added to each tube (final Triton X-100 concentration: 0.3%), inverted several times to mix up the sample, and then centrifuged at 10,000× g for 4 min at 4 °C. The supernatant was used as the enzyme source. The same process was carried out with M. domestica, except three heads were processed in a 1000:1000 μL sodium phosphate buffer and Triton X-100 buffer in the same manner as just described.
Concentration responses were conducted in the wells of a 96-well, clear, flat-bottomed plate. Inhibitor solutions of methomyl or monoterpenoids were first dissolved in DMSO (dimethyl sulfoxide) and then diluted in sodium phosphate buffer (100 mM, pH 7.8, DMSO concentration of 1%). A volume of 10 μL of the inhibitor solution was added to each well, along with 90 μL of sodium phosphate buffer, and finally 10 μL of homogenate. This was incubated on a plate shaker at 400 rpm for 10 min at room temperature. The final concentrations for methomyl were 100 μM, 10 μM, 1 μM, 100 nM, 10 nM, 1 nM, and 0 nM. For the monoterpenoids, the same range was used except the top concentration was 1 mM and the bottom non-zero concentration was 10 nM. The final concentration of DMSO in all wells was 0.09%.
After the 10-min incubation, 100 μL of Ellman’s reagent prepared in sodium phosphate buffer and each corresponding inhibitor concentration were added to the wells using a multichannel pipette.
as §3

Musca domestica [2] = details: 24 h, topical, adult females, susceptible strain
Aedes aegypti [3] = tested on: Aedes aegypti
rat = details: in vivo; cited from earlier work
Aedes aegypti [4] = tested on: Aedes aegypti; remark: listed apart in the source
Method: as §1, §2, §3

Musca domestica [5] = experiment: Co-toxicity assay with permethrin (topical); type: in vivo; details: for 1-h% Mean Knockdown ± SEM, Synergist Alone / 24-h% Mean Mortality ± SEM, Synergist Alone: 10.2 μg PBO, 70 μg carvone, 190 μg menthone, 80 μg fenchone per fly; for times as potent a synergist of permethrin as PBO: 24-h mortality; for 1-h% Mean Knockdown ± SEM, Mixture: near-sublethal synergist dose (10.2 μg PBO, 70 μg carvone, 190 μg menthone, 80 μg fenchone) + permethrin 18 ng; for 1-h knockdown Co-Toxicity Factor / 24-h mortality Co-Toxicity Factor: near-sublethal synergist dose + permethrin, >+20 potentiation, <−20 antagonism, −20 to +20 additive
Method: […]. Each dose was formulated in a total volume of 1.5 mL of acetone. A dose of permethrin that produced approximately 50% mortality (18 ng) was used as the treatment. Female flies were sorted into groups of 20 per synergism assay and dosed as previously mentioned (i.e., the same way as in the topical toxicity assays). Flies were assessed for mortality at 24 h.

rabbit = details: in vivo; cited from earlier work
[6] = 2 μg synergist + permethrin 0.6 ng/mosquito
[7] = 10 μg synergist + permethrin 0.6 ng/mosquito
[8] = 10 μg synergist per Ae. aegypti
[9] = 24 h, topical, adult females, susceptible strain
[10] = 2 μg synergist + methomyl 6 ng/mosquito
[11] = 2 μg synergist + methomyl, >+20 potentiation, <−20 antagonism, −20 to +20 additive
[12] = 10 μg synergist + methomyl 6 ng/mosquito
[13] = 10 μg synergist + methomyl, >+20 potentiation, <−20 antagonism, −20 to +20 additive

SMILES	1-h% Mean Knockdown ± SEM, Mixture (Aedes aegypti [1]; [6])	1-h knockdown Co-Toxicity Factor (Aedes aegypti [1]; 2 μg synergist + permethrin)	24-h mortality Co-Toxicity Factor (Aedes aegypti [1]; 2 μg synergist + permethrin)	1-h% Mean Knockdown ± SEM, Synergist Alone (Aedes aegypti [1]; 2 μg synergist per Ae. aegypti)	24-h% Mean Mortality ± SEM, Synergist Alone (Aedes aegypti [1]; 2 μg synergist per Ae. aegypti)	1-h% Mean Knockdown ± SEM, Mixture (Aedes aegypti [1]; [7])	1-h knockdown Co-Toxicity Factor (Aedes aegypti [1]; 10 μg synergist + permethrin)	24-h mortality Co-Toxicity Factor (Aedes aegypti [1]; 10 μg synergist + permethrin)	1-h% Mean Knockdown ± SEM, Synergist Alone (Aedes aegypti [1]; [8])	24-h% Mean Mortality ± SEM, Synergist Alone (Aedes aegypti [1]; [8])	inhibition at 1000 µM (acetylcholinesterase)	LD10 (95% CI) (Musca domestica [2])	1-h% Mean Knockdown ± SEM, Synergist Alone (Aedes aegypti [4]; 2 μg applied)	24-h% Mean Mortality ± SEM, Synergist Alone (Aedes aegypti [4]; 2 μg applied)	48-h% Mean Mortality ± SEM, Synergist Alone (Aedes aegypti [4]; 2 μg applied)	1-h% Mean Knockdown ± SEM, Synergist Alone (Musca domestica [5])	24-h% Mean Mortality ± SEM, Synergist Alone (Musca domestica [5])	1-h% Mean Knockdown ± SEM, Mixture (Musca domestica [5])	1-h knockdown Co-Toxicity Factor (Musca domestica [5])	24-h mortality Co-Toxicity Factor (Musca domestica [5])	also measured
CC12CCC(C1)C(C)(C)C2=O [Fenchone, L-fenchone]	100 ± 0%	32.0	160	0 ± 0%	2.5 ± 2.5%	100 ± 0%	16	121	10 ± 4.1%	2.5 ± 2.5%	1.9 ± 0.3%	8800 (8100–9400) d ng/mg body weight	0 ± 0%	2.5 ± 2.5%	7.5 ± 4.8%	0 ± 0%	0 ± 0%	100 ± 0%	24.0	63.4	LD50 (95% CI) (Musca domestica [2]): 13,200 (12,600–13,800) d ng/mg body weight; LD90 (95% CI) (Musca domestica [2]): 19,900 (18,600–21,600) d ng/mg body weight; LD10 (95% CI) (Aedes aegypti [3]; [9]): 7600 (5000–9500) b ng/mg body weight; LD50 (95% CI) (Aedes aegypti [3]; [9]): 11,300 (10,200–53,400) d ng/mg body weight; LD90 (95% CI) (Aedes aegypti [3]; [9]): 42,000 (28,800–94,900) d ng/mg body weight; Oral LD50 (rat): 6160 (rt) mg compound per kg body weight; 1-h% Mean Knockdown ± SEM, Mixture (Aedes aegypti [4]; [10]): 83.3 ± 3.3%; 1-h knockdown Co-Toxicity Factor (Aedes aegypti [4]; [11]): −5; 24-h mortality Co-Toxicity Factor (Aedes aegypti [4]; [11]): −11; 48-h mortality Co-Toxicity Factor (Aedes aegypti [4]; [11]): −17; 24-h mortality Co-Toxicity Factor (Aedes aegypti [4]; 2 μg synergist + methomyl, >+20 potentiation, <−20 antagonism, −20 to +20 additive, listed as fenchone): negative; 1-h% Mean Knockdown ± SEM, Synergist Alone (Aedes aegypti [4]; 10 μg applied): 10 ± 4.1%; 24-h% Mean Mortality ± SEM, Synergist Alone (Aedes aegypti [4]; 10 μg applied): 2.5 ± 2.5%; 48-h% Mean Mortality ± SEM, Synergist Alone (Aedes aegypti [4]; 10 μg applied): 10 ± 4.1%; 1-h% Mean Knockdown ± SEM, Mixture (Aedes aegypti [4]; [12]): 93.3 ± 6.7%; 1-h knockdown Co-Toxicity Factor (Aedes aegypti [4]; [13]): −4; 24-h mortality Co-Toxicity Factor (Aedes aegypti [4]; [13]): 22; 48-h mortality Co-Toxicity Factor (Aedes aegypti [4]; [13]): 7; times as potent a synergist of permethrin as PBO (Musca domestica [5]): 1.1; Dermal LD50 (rabbit): 5000 (rb) mg compound per kg body weight
CC(C)[C@@H]1CC[C@@H](C)CC1=O [Menthone, L-menthone]	100 ± 0%	19.8	132	7.5 ± 4.8%	5 ± 2.9%	100 ± 0%	13	83	12.5 ± 4.8%	15 ± 5%	3.7 ± 1.2%	5300 (5100–5400) c ng/mg body weight	7.5 ± 4.8%	5 ± 2.9%	7.5 ± 2.5%	4 ± 2.4%	0 ± 0%	95 ± 2.9%	12.6	48.4	times as strong a synergist of permethrin as PBO (Aedes aegypti [1]; 24-h mortality, 2 μg synergist): 5.3; LD90 (95% CI) (Musca domestica [2]): 8800 (8400–9400) c ng/mg body weight; LD10 (95% CI) (Aedes aegypti [3]; [9]): 5000 (1000–6300) b ng/mg body weight; LD90 (95% CI) (Aedes aegypti [3]; [9]): 10,000 (8500–13,100) c ng/mg body weight; times as toxic as fenchone (Aedes aegypti [3]; at LD10): about 1.5; times as toxic as fenchone (Aedes aegypti [3]; at LD50): about 1.5; times as toxic as fenchone (Aedes aegypti [3]; at LD90): about 4.2; 1-h% Mean Knockdown ± SEM, Mixture (Aedes aegypti [4]; [10]): 100 ± 0%; 1-h knockdown Co-Toxicity Factor (Aedes aegypti [4]; [11]): 0; 48-h mortality Co-Toxicity Factor (Aedes aegypti [4]; [11]): 7; 1-h% Mean Knockdown ± SEM, Synergist Alone (Aedes aegypti [4]; 10 μg applied): 12.5 ± 4.8%; 24-h% Mean Mortality ± SEM, Synergist Alone (Aedes aegypti [4]; 10 μg applied): 15 ± 5%; 48-h% Mean Mortality ± SEM, Synergist Alone (Aedes aegypti [4]; 10 μg applied): 22.5 ± 7.5%; 1-h% Mean Knockdown ± SEM, Mixture (Aedes aegypti [4]; [12]): 100 ± 0%; 1-h knockdown Co-Toxicity Factor (Aedes aegypti [4]; [13]): 0; 24-h mortality Co-Toxicity Factor (Aedes aegypti [4]; [13]): 29; 48-h mortality Co-Toxicity Factor (Aedes aegypti [4]; [13]): 7; times as effective a synergist of methomyl as PBO (Aedes aegypti [4]; 24-h mortality, 2 μg synergist): 2.0; times as potent a synergist of permethrin as PBO (Musca domestica [5]): 0.9
CCCCOCCOCCOCc1cc2c(cc1CCC)OCO2 [PBO, piperonyl butoxide, reference compound]	52.5 ± 7.5%	−44.7	25	7.5 ± 2.5%	12.5 ± 6.3%	60 ± 14.7%	−39	–	22.5 ± 4.8%	72.5 ± 8.5%	–	–	7.5 ± 2.5%	12.5 ± 6.3%	15 ± 3.4%	2 ± 2%	6 ± 2.9%	96 ± 4%	16.2	55.9	1-h knockdown Co-Toxicity Factor (Aedes aegypti [4]; in vivo): −5.3; 1-h% Mean Knockdown ± SEM, Mixture (Aedes aegypti [4]; in vivo): 90 ± 10%; 24-h mortality Co-Toxicity Factor (Aedes aegypti [4]; in vivo): 14.3; 48-h mortality Co-Toxicity Factor (Aedes aegypti [4]; in vivo): 20.9
